In the NIST ThermoML archive (doi:10.1016/j.jct.2018.07.017):
± gives the expanded uncertainty stated by the source.

What was measured:
[1] = for vapor or sublimation pressure: Transpiration method
[2] = Molar enthalpy of transition or fusion; conditions: Crystal; DSC

CC(C)(O)C(=O)O [2-hydroxy-2-methylpropanoic acid]
Conditions | mass density [kg/m3]
[1], 293 K, 101.33 kPa, Crystal, Pycnometric method | 1240 ± 400

[1]
Conditions | Normal melting temperature [°C] | vapor or sublimation pressure [kPa]
313.3 K, Crystal | – | 0.005081 ± 0.00037
318.2 K, Crystal | – | 0.008221 ± 0.00057
323.2 K, Crystal | – | 0.01418 ± 0.00095
328.1 K, Crystal | – | 0.02187 ± 0.0014
333.1 K, Crystal | – | 0.03606 ± 0.0024
338.1 K, Crystal | – | 0.05555 ± 0.0036
343.1 K, Crystal | – | 0.08884 ± 0.0057
347.8 K, Crystal | – | 0.139 ± 0.0088
356 K, Liquid | – | 0.2724 ± 0.017
359.8 K, Liquid | – | 0.3463 ± 0.022
363.7 K, Liquid | – | 0.4479 ± 0.028
367.7 K, Liquid | – | 0.5693 ± 0.035
369.3 K, Liquid | – | 0.6241 ± 0.039
371.7 K, Liquid | – | 0.7211 ± 0.045
373 K, Liquid | – | 0.7664 ± 0.048
375.6 K, Liquid | – | 0.8814 ± 0.055
377.1 K, Liquid | – | 0.9824 ± 0.061
379.5 K, Liquid | – | 1.093 ± 0.068
379.6 K, Liquid | – | 1.097 ± 0.068
Crystal, DTA | 75 ± 1.1 | –

Conditions | Molar enthalpy of transition or fusion [kcal/mol]
[2] | 4.21 ± 0.143
